The text below walks through data of patent US20230218631A1 (priority 2020, published 2023).

Holding throughout (type): in vivo
For experiment [1], the system named is wild-type mice (both male and female). The experiment in a line: Elevated plus maze (anxiety-like behavior). How it is done: These same mice were tested on a 5-minute elevated plus maze protocol at 1-3 days after their final drinking session. 30-60 minutes following an i.p. injection of either 0, 1, 2, or 4 mg/kg UNC0642, mice were allowed to freely explore the open and closed arms of the elevated plus maze. Less anxious mice typically explore the open arms more quickly and spend more time exploring the open arms. […] No statistically significant effects were observed on the time spent in the open arms, as UNC0642 had no effect on open arms time in the elevated plus maze (see FIG. 7D; One-Way ANOVA, F3,42=0.7372, p=0.5359, 1 outlier removed from the 1 mg/kg group with a Grubbs test) or on the number of entries into the open arms, meaning that UNC0642 had no effect on the number of open arm entries in the elevated plus maze (FIG. 7E; One-Way ANOVA, F3,42=1.396, p=0.2573, 1 outlier removed from the 0 mg/kg group with a Grubbs test). […] Thus, in some embodiments, it can be particularly useful for treating individuals with co-morbid psychiatric diseases and/or disorders and AUD/SUD.

For the next experiment, the system named is wild-type mice. The experiment in a line: Dependence (CIE)-induced and forced swim stress+dependence escalated ethanol drinking under systemic UNC0642. To be noted: chronic 4 mg/kg UNC0642 for 15 days. How it is done: Systemic G9A inhibitor administration and dependence-potentiated and stress+dependence-potentiated drinking. […] Mice were then divided into 4 even groups. Mice were exposed to Air/No stress, Air/FSS, CIE/No Stress, or CIE/stress in a 2×2 design to assess the effects of UNC0642 on dependence drinking alone and dependence+stress. Chronic injections of either vehicle or 4 mg/kg UNC0642 were started during the “test 4” phase in FIG. 6A and continued for 15 days. Ethanol consumed was recorded daily.
Since systemic delivery of UNC0642 blocked stress-regulated ethanol drinking in mice, we tested whether systemic delivery of UNC0642 could block dependence-induced escalation of ethanol drinking also. […] Mice were then divided into 4 evenly matched groups. Mice were exposed to Air/No stress, Air/FSS, CIE/No Stress, or CIE/stress to assess the effects of UNC0642 on ethanol drinking influenced by alcohol dependence alone or stress+dependence. Chronic injections of either vehicle or 4 mg/kg UNC0642 were started during the “test 4” phase illustrated in FIG. 6A and continued for 15 days.

Experiment [2] concerns wild-type mice (both male and female). The experiment in a line: Drinking in the Dark binge-like ethanol drinking. To be noted: 2 mg/kg i.p. for 10 days, 30 min before session, 20% ethanol, both sexes. The protocol: Since UNC0642 blocked stress-potentiated ethanol drinking in mice, as show above, we next tested whether UNC0642 could alter binge-like ethanol drinking in both sexes. Wild-type mice (both male and female) were given ethanol for 1 week in a “Drinking in the Dark” paradigm (Rhodes et al., 2005), a well-established alcohol model that is similar to binge-drinking in humans. Both male and female mice were given a single bottle of 20% ethanol in their home cage for 2 hours per day for 3 days. No alternative bottle of water was given in this experiment. On the 4th day, the access to the bottle was extended to 4 hours to model a binge-drinking session. After the first week, mice were split into even groups and were injected with UNC0642 (2 mg/kg, i.p.) or vehicle for 10 days 30 minutes before each drinking session began. Mice were tested for changes in baseline drinking and binge drinking for 2 weeks. […] Our data detected the well-documented sex differences in alcohol intake in these assays, but there was no significant interaction between sex and UNC0642 treatment.

For the compound `COc1cc2c(NC3CCN(C(C)C)CC3)nc(N3CCC(F)(F)CC3)nc2cc1OCCCN1CCCC1` [UNC0642, 2-(4,4-Difluoropiperidin-1-yl)-6-methoxy-N-[1-(propan-2-yl)piperidin-4-yl]-7-[3-(pyrrolidin-1-yl)propoxy]quinazolin-4-amine], the “time spent in the open arms of the elevated plus maze” value in experiment [1] (1, 2, 4 mg/kg i.p., FIG. 7D) was “no effect”. In experiment [1] (1, 2, 4 mg/kg i.p., FIG. 7E), the “number of open arm entries in the elevated plus maze” value was “no effect”. In addition, the “latency to explore the open arms of the elevated plus maze” value in experiment [1] (all 3 doses (1, 2, 4 mg/kg i.p.), 30-60 min after injection, 5-minute test, both sexes, FIG. 7C) is given as “reduced the latency”. Besides, the “dependence-induced ethanol drinking during test 5 week” value with wild-type mice (CIE vs Air, no stress, FIG. 6B left panel) is reported as “significant reduction”. In the experiment with wild-type mice (forced swim stress plus CIE, FIG. 6B right panel), the “stress+dependence ethanol drinking, test 5” value is “also suppressed”. Besides, in experiment [2] (FIG. 8A), the “single-bottle alcohol drinking, baseline 2 hour sessions” value is “no effect”. For the same compound, the “binge alcohol drinking, 4-hour binge sessions” value in experiment [2] (FIG. 8B) was “no effect”.
